# Reference: patent US12077503B2, “Substituted cyclic amides and their use as herbicides” (FMC CORPORATION, priority 2015, dated 2024)
# Key:
# Assay type in all cases: in vivo
# [1] = tested on: ryegrass, Italian (Italian ryegrass, Lolium multiflorum); assay: Test A postemergence; settings: postemergence, 0 to 100 scale (0 no effect, 100 complete control)
# Outline: (§1)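 Compounds were formulated in a non-phytotoxic solvent mixture with surfactant and applied as a preemergence directed soil spray after seeding, or sprayed postemergence over plants 2 to 10 cm tall at the one- to two-leaf stage. Evaluation after about 10 d compared treated with untreated controls, using a scale from 0 (no effect) to 100 (complete control).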
# [2] = tested on: pigweed (Amaranthus retroflexus); assay: Test A postemergence; settings: postemergence, 0 to 100 scale (0 no effect, 100 complete control)
# Outline: as §1
# [3] = tested on: ragweed (common ragweed, Ambrosia elatior); assay: Test A postemergence; settings: postemergence, 0 to 100 scale (0 no effect, 100 complete control)
# Outline: as §1
# [4] = tested on: blackgrass (Alopecurus myosuroides); assay: Test A postemergence
# Outline: as §1
# [5] = tested on: barnyardgrass (Echinochloa crus-galli); assay: Test A postemergence
# Outline: as §1
# corn (Zea mays) = assay: Test A postemergence
# Outline: as §1
# [6] = tested on: wheat (Triticum aestivum); assay: Test A postemergence; settings: postemergence, 0 to 100 scale (0 no effect, 100 complete control)
# Outline: as §1
# [7] = tested on: Galium (catchweed bedstraw, Galium aparine); assay: Test A postemergence; settings: postemergence, 0 to 100 scale (0 no effect, 100 complete control)
# Outline: as §1
# Kochia (Kochia scoparia) [8] = assay: Test A postemergence; settings: postemergence, 0 to 100 scale (0 no effect, 100 complete control)
# Outline: as §1
# [9] = tested on: giant foxtail (Setaria faberii); assay: Test A postemergence; settings: postemergence, 0 to 100 scale (0 no effect, 100 complete control)
# Outline: as §1
# [10] = tested on: ryegrass, Italian (Italian ryegrass, Lolium multiflorum); assay: Test A preemergence
# Outline: as §1
# [11] = tested on: pigweed (Amaranthus retroflexus); assay: Test A preemergence
# [12] = tested on: ragweed (common ragweed, Ambrosia elatior); assay: Test A preemergence
# Outline: as §1
# [13] = tested on: barnyardgrass (Echinochloa crus-galli); assay: Test A preemergence
# Outline: as §1
# Kochia (Kochia scoparia) [14] = assay: Test A preemergence
# Outline: as §1
# [15] = tested on: giant foxtail (Setaria faberii); assay: Test A preemergence
# Outline: as §1
# [16] = tested on: ducksalad (Heteranthera limosa); assay: Test B flooded paddy test; settings: Flood, 250 g ai/ha; 0 to 100 scale where 0 is no effect and 100 is complete control; 13 to 15 d
# Outline: (§2)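 2-leaf plants; pots flooded 3 cm over soil; cpd added to paddy water; depth held; greenhouse 13–15 d; visual rating vs controls, 0 = no effect, 100 = complete control.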
# [17] = tested on: barnyardgrass (Echinochloa crus-galli); assay: Test B flooded paddy test; settings: Flood, 250 g ai/ha; 0 to 100 scale where 0 is no effect and 100 is complete control; 13 to 15 d
# Outline: as §2
# rice (Oryra sativa) = assay: Test B flooded paddy test; settings: Flood, 250 g ai/ha; 0 to 100 scale where 0 is no effect and 100 is complete control; 13 to 15 d
# Outline: as §2
# [18] = tested on: sedge, umbrella (small-flower umbrella sedge, Cyperus difformis); assay: Test B flooded paddy test; settings: Flood, 250 g ai/ha; 0 to 100 scale where 0 is no effect and 100 is complete control; 13 to 15 d
# Outline: as §2
# soybean (Glycine max) = assay: Test C preemergence; settings: for Plant response rating (scale of 0 to 100), Soybean: 31 g ai/ha, 0 is no effect, 100 is complete control; for Plant response rating, Soybean: scale 0 to 100, 0 no effect, 100 complete control
# Outline: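 Visual rating, 0–100 scale (0 = no effect, 100 = complete control) versus controls, 13–15 d after treatment. Compounds in non-phytotoxic solvent plus surfactant; applied preemergence to seeds in loam/sand soil or postemergence to 1- to 4-leaf plants (2–18 cm) in peat/vermiculite medium; greenhouse-held.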
# [19] = 125 g ai/ha, visual rating after approx. 10 d
# [20] = 500 g ai/ha, visual injury, approx. 10 d
# [21] = 125 g ai/ha, postemergence, visual rating after approx. 10 d, 0 to 100 scale (0 no effect, 100 complete control)
# [22] = Postemergence, 500 g ai/ha, 0 to 100 scale where 0 is no effect and 100 is complete control
# [23] = 125 g ai/ha, Preemergence, visual injury after approximately 10 d, 0 to 100 scale where 0 is no effect and 100 is complete control
# [24] = 500 g ai/ha, preemergence, 0 to 100 scale, 0 = no effect, 100 = complete control
# [25] = 500 g ai/ha, postemergence, visual injury, 0 to 100 scale (0 no effect, 100 complete control), approx. 10 d
Compound,"Plant response rating, Ryegrass, Italian [1, 19]","Plant response rating, Ryegrass, Italian [1, 20]","Plant response rating, Pigweed [2, 19]","Plant response rating, Pigweed [2, 20]","Plant response rating, Ragweed [3, 19]","Plant response rating, Ragweed [3, 20]","Plant response rating, Blackgrass [4, 21]","Plant response rating, Barnyardgrass [5, 21]","Plant response rating, Corn (corn (Zea mays); [21])","Plant response rating, Wheat [6, 19]","Plant response rating, Wheat [6, 20]","Plant response rating, Galium [7, 19]","Plant response rating, Galium [7, 20]","Plant response rating, Kochia (Kochia (Kochia scoparia) [8]; [19])","Plant response rating, Kochia (Kochia (Kochia scoparia) [8]; [20])","Plant response rating, Foxtail, Giant [9, 19]","Plant response rating, Foxtail, Giant [9, 20]","Plant response rating, Ryegrass, Italian [10, 23]","Plant response rating, Ryegrass, Italian [10, 24]","Plant response rating, Pigweed [11, 23]",also measured
CN1CC(c2cccc(C(F)(F)F)c2)C(C(=O)Nc2cccc(F)c2F)C1=O (stereo not drawn) [Compound 636],50,70,30,50,0,30,60,90,70,60,60,50,50,50,60,90,90,90,90,40,"Plant response rating, Blackgrass [4, 22]: 60; Plant response rating, Barnyardgrass [5, 22]: 90; Plant response rating, Corn (corn (Zea mays); [22]): 80; Plant response rating, Pigweed [11, 24]: 80; Plant response rating, Ragweed [12, 23]: 20; Plant response rating, Ragweed [12, 24]: 70; Plant response rating, Barnyardgrass [13, 23]: 90; Plant response rating, Barnyardgrass [13, 24]: 90; Plant response rating, Kochia (Kochia (Kochia scoparia) [14]; [23]): 50; Plant response rating, Kochia (Kochia (Kochia scoparia) [14]; [24]): 70; Plant response rating, Foxtail, Giant [15, 23]: 90; Plant response rating, Foxtail, Giant [15, 24]: 90; Plant response rating, Ducksalad [16]: 100; Plant response rating, Barnyardgrass [17]: 70; Plant response rating, Rice (rice (Oryra sativa)): 0; Plant response rating, Sedge, Umbrella [18]: 0; Plant response rating (scale of 0 to 100), Soybean (soybean (Glycine max)): 0; Plant response rating, Soybean (soybean (Glycine max); 62 g ai/ha): 75; Plant response rating, Soybean (soybean (Glycine max); 125 g ai/ha): 0; Plant response rating, Soybean (soybean (Glycine max); 250 g ai/ha): 0"
CN1CC(c2cccc(C(F)(F)F)c2)C(C(=O)Nc2ccccc2S(C)(=O)=O)C1=O (stereo not drawn) [Compound 637],20,20,50,60,0,20,50,90,70,70,70,50,50,0,30,90,90,50,90,80,"Plant response rating, Blackgrass [4, 22]: 60; Plant response rating, Barnyardgrass [5, 22]: 90; Plant response rating, Corn (corn (Zea mays); [22]): 70; Plant response rating, Pigweed [11, 24]: 100; Plant response rating, Ragweed [12, 23]: 40; Plant response rating, Ragweed [12, 24]: 70; Plant response rating, Barnyardgrass [13, 23]: 90; Plant response rating, Barnyardgrass [13, 24]: 90; Plant response rating, Kochia (Kochia (Kochia scoparia) [14]; [23]): 40; Plant response rating, Kochia (Kochia (Kochia scoparia) [14]; [24]): 60; Plant response rating, Foxtail, Giant [15, 23]: 90; Plant response rating, Foxtail, Giant [15, 24]: 100; Plant response rating, Ducksalad [16]: 100; Plant response rating, Barnyardgrass [17]: 80; Plant response rating, Rice (rice (Oryra sativa)): 10; Plant response rating, Sedge, Umbrella [18]: 0; Plant response rating (scale of 0 to 100), Soybean (soybean (Glycine max)): 0; Plant response rating, Soybean (soybean (Glycine max); 62 g ai/ha): 0; Plant response rating, Soybean (soybean (Glycine max); 125 g ai/ha): 0; Plant response rating, Soybean (soybean (Glycine max); 250 g ai/ha): 5"
Cc1ccc(C2CN(C)C(=O)C2C(=O)Nc2cccc(F)c2F)cc1 (stereo not drawn) [Compound 662],40,70,20,50,20,60,60,90,80,80,80,60,70,70,70,90,90,40,90,70,"Plant response rating, Blackgrass [4, 25]: 80; Plant response rating, Barnyardgrass [5, 25]: 90; Plant response rating, Corn (corn (Zea mays); [25]): 90; Plant response rating, Pigweed [11, 24]: 80; Plant response rating, Ragweed [12, 23]: 80; Plant response rating, Ragweed [12, 24]: 80; Plant response rating, Barnyardgrass [13, 23]: 90; Plant response rating, Barnyardgrass [13, 24]: 90; Plant response rating, Kochia (Kochia (Kochia scoparia) [14]; [23]): 70; Plant response rating, Kochia (Kochia (Kochia scoparia) [14]; [24]): 90; Plant response rating, Foxtail, Giant [15, 23]: 100; Plant response rating, Foxtail, Giant [15, 24]: 100; Plant response rating, Ducksalad [16]: 95; Plant response rating, Barnyardgrass [17]: 80; Plant response rating, Rice (rice (Oryra sativa)): 20; Plant response rating, Sedge, Umbrella [18]: 0; Plant response rating (scale of 0 to 100), Soybean (soybean (Glycine max)): 0; Plant response rating, Soybean (soybean (Glycine max); 62 g ai/ha): 0; Plant response rating, Soybean (soybean (Glycine max); 125 g ai/ha): 0; Plant response rating, Soybean (soybean (Glycine max); 250 g ai/ha): 0"
Cc1cccc(C2CN(C)C(=O)C2C(=O)Nc2cccc(F)c2F)c1 (stereo not drawn) [Compound 667],60,80,0,0,0,50,60,90,70,40,70,50,50,50,60,90,90,80,90,20,"Plant response rating, Blackgrass [4, 25]: 70; Plant response rating, Barnyardgrass [5, 25]: 90; Plant response rating, Corn (corn (Zea mays); [25]): 80; Plant response rating, Pigweed [11, 24]: 50; Plant response rating, Ragweed [12, 23]: 60; Plant response rating, Ragweed [12, 24]: 70; Plant response rating, Barnyardgrass [13, 23]: 90; Plant response rating, Barnyardgrass [13, 24]: 90; Plant response rating, Kochia (Kochia (Kochia scoparia) [14]; [23]): 40; Plant response rating, Kochia (Kochia (Kochia scoparia) [14]; [24]): 70; Plant response rating, Foxtail, Giant [15, 23]: 90; Plant response rating, Foxtail, Giant [15, 24]: 100; Plant response rating, Ducksalad [16]: 90; Plant response rating, Barnyardgrass [17]: 75; Plant response rating, Rice (rice (Oryra sativa)): 10; Plant response rating, Sedge, Umbrella [18]: 0; Plant response rating, Soybean (soybean (Glycine max); 62 g ai/ha): 10; Plant response rating, Soybean (soybean (Glycine max); 125 g ai/ha): 0; Plant response rating, Soybean (soybean (Glycine max); 250 g ai/ha): 0"
